The conditions of series [1]: for Normal melting temperature: DTA; for Triple point temperature: Crystal 2, DSC.
A short description of series [2]: Molar enthalpy of transition or fusion. The conditions noted are these: DSC.

Numbers after ± are expanded uncertainties.

Consider `CCCCCCCCCCCCCCCCCCCC` [eicosane], for which the Normal melting temperature in series [1] (Crystal) worked out at 35.03 ± 0.53 °C. For the same compound, the “Molar enthalpy of transition or fusion” value in series [2] (Crystal) was 17.3 ± 2.1 kcal/mol.

As for `CCCCCCCCCCCCCCCCCCCCCCCC` [tetracosane], the Normal melting temperature in series [1] (Crystal 1) came out at 48.06 ± 0.53 °C. Moreover, in series [1], the Triple point temperature turned out to be 319.35 ± 0.81 K. For the same compound, the entries for the “Molar enthalpy of transition or fusion” value in series [2] (Crystal 1) and in series [2] (Crystal 2) were 14.6 ± 1.77 kcal/mol and 8.08 ± 0.98 kcal/mol, respectively.

On to `c1ccc(-c2ccccc2)cc1` [biphenyl], for which the Normal melting temperature in series [1] (Crystal) came out at 68.0 ± 0.53 °C. Besides, in series [2] (Crystal), the “Molar enthalpy of transition or fusion” value turned out to be 4.66 ± 0.574 kcal/mol.

On to `CCCCCCCCCCCCCCCCCCCCO` [1-eicosanol], for which the Normal melting temperature in series [1] (Crystal) worked out at 63.8 ± 0.53 °C. Also, the “Molar enthalpy of transition or fusion” value in series [2] (Crystal) was determined as 17 ± 2.08 kcal/mol.

For `CCCCCCCCCCCCCCCCCCO` [1-octadecanol], the Normal melting temperature in series [1] (Crystal 1) turned out to be 56.2 ± 0.53 °C. Besides, the Triple point temperature in series [1] is listed as 319.35 ± 0.81 K. The “Molar enthalpy of transition or fusion” value was found to be 12.4 ± 1.51 kcal/mol in series [2] (Crystal 1) and 6.54 ± 0.789 kcal/mol in series [2] (Crystal 2).
